Assay results from US20120046357A1, “Benzamide and Napthamide Derivatives Inhibiting Nuclear Factor-Kappa (B) - (NK-kB)” (Profectus Biosciences, Inc., priority 2009, published 2012).

Assays:
NF-κB [1] = experiment: 293/NFkB-luc reporter cell assay (TNF-α induced luciferase expression); type: cell-based; details: 293/NFkB-luc, 293 cells, pNF-κB-luc reporter, 2 h pretreatment, 20 ng/ml TNF-α 18 h
Procedure: (§1) Two reporter cell assays were used to determine the ability of the compound of Example 10 to inhibit NF-κB driven transcription. The first assay was a 293-cell based assay with a stably integrated pNF-κB-luc reporter plasmid containing 3 NF-κB promoter elements. The second assay was a 293-cell based assay with a stably integrated pTRH1-NF-κB-dscGFP reporter containing 4 NF-κB promoter elements. Cells were treated with 0, 0.2, 1, 10, 20 and 40 μM of the compound of Example 10 for 2 hours then were induced with 20 ng/ml TNF-α for 18 hours. Following the induction, luminescence or fluorescence was quantified using a Beckman-Coulter 2300 plate reader. […] These values represent the median value generated from three independent experiments. As a control, 0.5% DMSO treated and untreated cells were compared to verify that the compound of Example 10 had no effect on the expression of luciferase or in the readout of the assay. There was a slight decrease in the output from the assay in the DMSO treated population although it was not statistically significant. As a result of the controls, the decrease in activity in the drug treated samples was compared to the DMSO control sample.

NF-κB [2] = experiment: NF-κB/293/GFP reporter cell assay (TNF-α induced GFP expression); type: cell-based; details: Homo sapiens, HEK293, 293 cells, pTRH1-NF-κB-dscGFP reporter, 2 h pretreatment, 20 ng/ml TNF-α 18 h; read-out: NF-KB/293/GFP EC50
Procedure: as §1

p65 (RelA) = biological target: T1, p65 (RelA) (Homo sapiens, UniProt Q04206); experiment: TransAM NF-κB family DNA binding ELISA, p65; type: biochemical; details: binding to NF-κB consensus oligonucleotide
T1 construct: purchased Active Motif
Procedure: The binding activity of NF-κB heterodimer or homodimer subunits from activated nuclear extracts or purified recombinant NF-κB proteins exposed to the drug compounds was evaluated using the TransAM NF-κB Family binding ELISA (Active Motif). 3-5 μg of nuclear extracts from TNFα activated Hela or Raji cells (Active Motif) or 20 ng of purified recombinant proteins (p65 and p50 from Active Motif, p52 from Santa Cruz) were incubated for 1 hour at room temperature with 20 μL drug compounds diluted in Complete Lysis buffer without DTT. Treated samples were then transferred to 30 μL Complete Binding Buffer (with DTT) in microplate wells pre-coated with the NF-κB consensus oligonucleotide. […] The plate was incubated for 1 hour at room temperature with gentle shaking and then washed 3 times with 200 μL 1× Wash Buffer. NF-κB p65, p50, p52, RelB, or c-Rel subunits bound to the plate were detected with 100 μL of the primary antibody (diluted 1:1000 in 1× Antibody Buffer) specific for that subunit. The plate was incubated for 1 hour at room temperature and then washed 3 times with 200 μL 1× Wash Buffer. Next, 100 μL of a HRP conjugated goat anti-rabbit antibody (diluted 1:1,000 in 1× Antibody Buffer) was added to each well. The plate was incubated for 1 hour at room temperature and then washed 4 times with 200 μL 1× Wash Buffer. 100 μL of room temperature Developing Solution was added to each well. The reaction was allowed to develop for 2-10 minutes until a medium dark blue color developed (depending on the subunit activity in the lot of extract or lot of recombinant protein used) and then the reaction was stopped with 100 μL Stop Solution yielding a yellow color. Absorbance was recorded using a Becton-Dickinson DTX 880 Multimode Detector at 450 nm with a reference wavelength subtracted at 620 nm. FIGS. 2, 3 and 4 illustrate the effect of Example 10 on inhibiting RelA, RelB and c-Rel binding to NF-κB sites.

[3] = system: IL-6 release from RAW264.7 cells; experiment: LPS-stimulated IL-6 release from RAW264.7 cells (ELISA); type: cell-based, mouse; details: Mus musculus, RAW264.7, RAW264.7 cells, 2 h pretreatment, 1 μg/mL LPS 20-24 h; read-out: RAW 264.7 IL-6 release EC50
Procedure: RAW 264.7 cells were seeded at 4×10^4 cells per well n complete growth medium in 96 well white TC plates with clear bottoms one day prior to the assay. The next day the cells were washed once and 100 μL fresh growth media was added. Cells were pretreated with 0.5 μL from a 6 point 200× dilution series of the test compounds in DMSO for 2 hours. Following pretreatment with the drugs, the inflammatory response was induced by adding 5 μL of a 20 μg/mL solution of LPS (Sigma). The cells were incubated in the presence of the drugs and 1 μg/mL LPS for another 20-24 hours. Typically after treatment the total DMSO was […] of the culture volume and the final concentrations of the compounds were approximately: 40, 20, 10, 1, 0.2 and 0 μM depending on the MW of each compound. Modified dilution series were prepared as needed to get adequate dose response curves without changing the % DMSO. Samples were run in duplicate or triplicate and included DMSO treated control wells with and without LPS stimulation. Drugs with a known activity such as Parthenolide or DHMEQ were run as experimental controls. After 20-24 hours LPS activation, the media supernatant was collected from the cells and replaced with fresh media. The supernatant samples were cleared by centrifugation at 1,000×g for 5 minutes, transferred to fresh storage plates, and stored frozen at −30° C.
After determining the appropriate supernatant dilutions experimentally, mIL-6 levels in the supernatants were quantified using Quantikine™ mouse IL-6 immunoassay (R&D Systems) according to the manufacturer's protocol. […] diluted in Calibrator Diluent were added to 50 μL of Assay Diluent in microplate wells pre-coated with an anti-mouse IL-6 capture antibody. Controls included a calibrated positive IL-6 control sample, non-specific binding (NSB) wells containing Calibrator Diluent but no IL-6, and a recombinant mouse IL-6 standard dilution series (10-1000 pg/mL). The plates were incubated at room temperature for 2 hours with shaking and then washed 5 times with 400 μL 1× Wash Buffer. […] anti-mouse IL-6 antibody was added to each well to detect IL-6 captured on the plate. The plates were incubated at room temperature for 2 hours and then washed 5 times with 400 μL 1× Wash Buffer. Equal volumes of Color Reagents A and B were mixed and 100 μL of this HRP Substrate Solution was added to each well on the plate. The blue color was allowed to develop for 30 minutes and then the reaction was stopped using 100 μL of Stop Solution yielding a yellow color. Absorbance at 450 nm with a reference wavelength subtracted at 595 nm was recorded using a Becton-Dickinson DTX 880 Multimode Detector.
The concentration of mIL-6 in the unknown samples was determined from a curve-fit of the mIL-6 standard absorbance data and multiplying by the dilution factor. The maximum activity achieved in the absence of the inhibitor (DMSO+LPS treated wells) was arbitrarily given a value of 100%; likewise the minimum activity in the absence of the stimulant (no LPS) was assigned a value of 0%. Inhibition of the amount of mIL-6 cytokine released in the drug treated wells was calculated relative to the maximum activation in the DMSO+LPS treated control wells (ie. % inhibition=100−(drug+LPS treated)/(DMSO+LPS treated)). Dose response curves were used to determine the effective concentration to inhibit 50% of the mIL-6 cytokine released (IC50) by means of a SigmaPlot macro which fits a sigmoidal dose-response curve to the (log 10) μM concentration versus % inhibition. […] This technique yields an objective value for the IC50 provided that 50% inhibition was approached at the concentrations tested. FIG. 5 illustrates the effect of the compound of Example 10 on inhibiting IL-6 release.

T1 sequence (Q04206 whole entry): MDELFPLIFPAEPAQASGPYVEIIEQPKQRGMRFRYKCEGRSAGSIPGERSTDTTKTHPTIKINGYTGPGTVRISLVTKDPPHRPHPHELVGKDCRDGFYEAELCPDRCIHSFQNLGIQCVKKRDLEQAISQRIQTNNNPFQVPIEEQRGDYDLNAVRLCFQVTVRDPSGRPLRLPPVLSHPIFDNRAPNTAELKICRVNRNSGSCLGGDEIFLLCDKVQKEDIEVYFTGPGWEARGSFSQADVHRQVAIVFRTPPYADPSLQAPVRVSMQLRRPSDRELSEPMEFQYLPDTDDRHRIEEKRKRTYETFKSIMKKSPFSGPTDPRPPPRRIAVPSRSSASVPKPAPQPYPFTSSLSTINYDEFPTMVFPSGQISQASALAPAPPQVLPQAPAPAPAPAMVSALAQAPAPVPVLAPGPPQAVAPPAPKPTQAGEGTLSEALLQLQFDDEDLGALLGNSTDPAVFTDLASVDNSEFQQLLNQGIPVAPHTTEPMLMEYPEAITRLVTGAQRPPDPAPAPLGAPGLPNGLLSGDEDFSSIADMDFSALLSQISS

| EC50 (NF-κB [1]) [µM] | EC50 (NF-κB [2]) [µM] | IC50 (p65 (RelA)) [µM] | EC50 [3] [µM] | SMILES |
| --- | --- | --- | --- | --- |
| 2.2 | 3.6 | 9.7 | 0.14 | O=C(NC1=CC(=O)C2OC2C1=O)c1c(O)ccc2ccccc12 (racemic) [Example 12, (±)-N-(2,5-dioxo-7-oxabicyclo[4.1.0]hept-3-en-3-yl)-2-hydroxy-1-naphthamide] |
| 21 | 9.2 | 8.7 | 1.7 | Cc1cc(Br)cc(C(=O)NC2=CC(=O)C3OC3C2O)c1O (racemic) [Example 13, (±)-5-bromo-2-hydroxy-N-(2-hydroxy-5-oxo-7-oxabicyclo[4.1.0]hept-3-en-3-yl)-3-methylbenzamide] |
| 2.9 | 3.6 | 5.3 | 0.25 | Cc1cc(Br)cc(C(=O)NC2=CC(=O)C3OC3C2=O)c1O (racemic) [Example 14, (±)-5-bromo-N-(2,5-dioxo-7-oxabicyclo[4.1.0]hept-3-en-3-yl)-2-hydroxy-3-methylbenzamide] |
| 2.1 | 3.1 | 26 | 0.58 | CN(C)c1ccc(C(=O)NC2=CC(=O)C3OC3C2=O)c(O)c1 (racemic) [Example 18, (±)-4-(dimethylamino)-N-(2,5-dioxo-7-oxabicyclo[4.1.0]hept-3-en-3-yl)-2-hydroxybenzamide] |
